A short description of data set [1]: Cmax value in IRC mice. The format is ADME, organism-based. Conditions: mouse, in vivo.
Data set [2] can be described thus: Area under curve at 0-8 hr in IRC mice after peroral administration. Set-up: time < 8 hr, route oral. The format is ADME, organism-based. As to conditions: mouse, in vivo, po.
For data set [3], the target named is T1, Retinoic acid receptor beta (Homo sapiens, UniProt P10826).
T1 sequence (P10826 whole entry): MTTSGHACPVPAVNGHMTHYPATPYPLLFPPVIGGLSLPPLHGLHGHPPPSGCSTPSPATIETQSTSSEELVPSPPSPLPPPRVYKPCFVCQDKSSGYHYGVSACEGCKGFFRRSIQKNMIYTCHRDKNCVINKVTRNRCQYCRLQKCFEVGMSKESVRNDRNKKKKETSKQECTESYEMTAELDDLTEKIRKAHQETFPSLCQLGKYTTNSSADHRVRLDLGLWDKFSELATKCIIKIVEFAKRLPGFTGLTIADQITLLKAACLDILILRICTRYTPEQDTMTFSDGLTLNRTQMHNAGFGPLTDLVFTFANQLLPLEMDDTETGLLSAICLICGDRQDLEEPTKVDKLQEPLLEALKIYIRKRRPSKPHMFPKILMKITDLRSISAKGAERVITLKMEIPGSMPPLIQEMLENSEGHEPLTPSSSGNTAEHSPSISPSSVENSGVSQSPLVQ
Description: Binding affinity against RAR beta receptor using [3H]ATRA as radioligand in CV-1 cells. The format is cell-based, Cercopithecidae.

Data set [4] deals with T2, Retinoic acid receptor RXR-beta (Homo sapiens, UniProt P28702).
T2 sequence (P28702 whole entry): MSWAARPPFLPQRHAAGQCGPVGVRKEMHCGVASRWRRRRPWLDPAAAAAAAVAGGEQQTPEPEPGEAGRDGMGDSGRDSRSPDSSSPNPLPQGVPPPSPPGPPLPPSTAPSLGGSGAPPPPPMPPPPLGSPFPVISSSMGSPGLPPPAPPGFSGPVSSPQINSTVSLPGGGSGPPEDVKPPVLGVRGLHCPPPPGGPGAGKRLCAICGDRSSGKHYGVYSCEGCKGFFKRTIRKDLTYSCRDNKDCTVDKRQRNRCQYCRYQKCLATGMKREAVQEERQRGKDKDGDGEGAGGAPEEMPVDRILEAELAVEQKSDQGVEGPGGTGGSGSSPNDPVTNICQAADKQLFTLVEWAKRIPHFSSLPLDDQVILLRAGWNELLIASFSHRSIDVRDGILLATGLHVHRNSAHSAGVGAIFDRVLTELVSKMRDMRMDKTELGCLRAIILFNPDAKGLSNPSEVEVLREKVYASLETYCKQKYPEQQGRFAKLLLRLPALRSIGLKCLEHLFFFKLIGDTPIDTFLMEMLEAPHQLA
Description: Displacement of [3H]9-cis-RA from RXR beta receptor in CV-1 cells. The data set is classed as cell-based, Cercopithecidae.

Data set [5] in a line: Tmax value in IRC mice. As to conditions: mouse, in vivo. The data set is classed as ADME, organism-based.
Data set [6] addresses T3, Peroxisome proliferator-activated receptor gamma (Homo sapiens, UniProt P37231).
T3 sequence (P37231 whole entry): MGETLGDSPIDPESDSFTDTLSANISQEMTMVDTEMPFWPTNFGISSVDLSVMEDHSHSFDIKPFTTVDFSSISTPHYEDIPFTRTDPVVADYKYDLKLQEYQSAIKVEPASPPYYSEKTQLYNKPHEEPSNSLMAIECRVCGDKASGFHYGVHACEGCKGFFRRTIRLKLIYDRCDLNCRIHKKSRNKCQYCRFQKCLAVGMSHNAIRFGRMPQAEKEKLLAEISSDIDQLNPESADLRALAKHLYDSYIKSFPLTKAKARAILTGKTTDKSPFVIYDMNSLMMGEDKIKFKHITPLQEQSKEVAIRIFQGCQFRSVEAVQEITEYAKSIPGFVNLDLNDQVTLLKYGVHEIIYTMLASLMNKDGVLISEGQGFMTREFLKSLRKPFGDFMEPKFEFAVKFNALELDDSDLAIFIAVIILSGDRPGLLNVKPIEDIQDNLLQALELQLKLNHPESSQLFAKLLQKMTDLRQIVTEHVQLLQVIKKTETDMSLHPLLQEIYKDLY
Description: In vitro agonist efficacy against PPAR gamma along with 100 nM BRL-49653

The target of data set [7] is T4, Retinoic acid receptor RXR-gamma (Homo sapiens, UniProt P48443).
T4 sequence (P48443 whole entry): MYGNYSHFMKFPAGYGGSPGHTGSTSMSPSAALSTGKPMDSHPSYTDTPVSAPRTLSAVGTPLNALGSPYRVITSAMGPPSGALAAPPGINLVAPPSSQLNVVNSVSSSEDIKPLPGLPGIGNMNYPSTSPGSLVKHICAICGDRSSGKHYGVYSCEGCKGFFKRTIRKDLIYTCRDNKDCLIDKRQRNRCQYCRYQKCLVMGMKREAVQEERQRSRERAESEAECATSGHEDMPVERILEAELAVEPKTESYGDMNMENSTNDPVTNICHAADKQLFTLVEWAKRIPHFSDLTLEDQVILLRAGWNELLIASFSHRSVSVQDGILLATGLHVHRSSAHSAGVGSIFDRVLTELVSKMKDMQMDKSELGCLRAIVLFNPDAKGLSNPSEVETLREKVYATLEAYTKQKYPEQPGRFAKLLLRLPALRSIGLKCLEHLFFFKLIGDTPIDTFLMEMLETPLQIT
Put plainly: Binding affinity against RXR gamma receptor using [3H]9-cis-RA as radioligand in CV-1 cells. The data set is classed as cell-based, Cercopithecidae.

Data set [8] concerns the target T5, Retinoic acid receptor RXR-alpha (Homo sapiens, UniProt P19793).
T5 sequence (P19793 whole entry): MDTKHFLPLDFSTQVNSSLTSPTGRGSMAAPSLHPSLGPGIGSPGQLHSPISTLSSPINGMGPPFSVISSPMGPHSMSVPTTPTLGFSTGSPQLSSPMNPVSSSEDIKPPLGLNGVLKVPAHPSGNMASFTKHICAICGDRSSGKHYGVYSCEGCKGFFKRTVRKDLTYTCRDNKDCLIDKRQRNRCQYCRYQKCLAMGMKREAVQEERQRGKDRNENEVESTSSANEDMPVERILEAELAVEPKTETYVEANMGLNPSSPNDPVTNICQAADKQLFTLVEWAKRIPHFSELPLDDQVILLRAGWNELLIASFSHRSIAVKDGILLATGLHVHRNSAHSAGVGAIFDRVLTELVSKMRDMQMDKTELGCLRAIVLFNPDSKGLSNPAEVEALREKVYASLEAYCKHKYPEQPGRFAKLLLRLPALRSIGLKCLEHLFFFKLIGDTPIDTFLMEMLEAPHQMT
Put plainly: In vitro antagonist activity against RXR alpha in CV-1 cells. The data set is classed as functional, cell-based, Cercopithecidae.

The text below walks through data of ChEMBL document CHEMBL1136440, “Design and synthesis of novel RXR-selective modulators with improved pharmacological profile” (Bioorg Med Chem Lett, 2003).

By Cmax is commonly meant the maximum level reached in the sampled fluid or tissue. For orientation: AUC(0-t) means the area under the concentration-time curve up to a stated or last time point. The low end stands for less exposure, the high end for more exposure. In general, pKi refers to the negative decadic logarithm of the Ki, by convention in mol/L. Low readings indicate a high Ki, high ones a low Ki. A word on the Tmax: it is the time from dosing to the highest level. As usually defined, the pEC50 is −log10 of the EC50, conventionally taken in molar units. Read a low pEC50 as a high EC50. One may read the pIC50 as −log10 of the IC50, conventionally taken in molar units. A lower pIC50 goes with a high IC50.

pEC50, pIC50, pKi: −log10 of the molar value. Where “and” joins values, the source holds several entries; their conditions need not be identical. Equal values may be shown once.

Regarding `C/C(=C/C=C/C(C)=C/C(=O)O)c1cc(-c2ccccc2F)cc(C(C)C)c1OCC(F)F`, the Cmax in data set [1] was 4140 ng/mL and 9.31 µM. Further, the AUC(0-t) at 8 h in data set [2] was found to be 15200 ng·h/mL. Besides, the pKi in data set [3] was 5.41; in data set [4], 7.80; in data set [7] it was 7.96. For the same molecule, the Tmax in data set [5] came to 1 h. Further, the pEC50 in data set [6] is 7.34. Moreover, in data set [8], the pIC50 is 8.51.

`CCOc1c(\C(C)=C/C=C/C(C)=C/C(=O)O)cc(C(F)(F)C(F)(F)F)cc1C(C)C`: the highest concentration (Cmax) in data set [1] is 4430 ng/mL and 10.2 µM. Further, the AUC(0-t) at 8 h in data set [2] amounted to 14400 ng·h/mL. The pKi was less than 5.00 in data set [3], 8.07 in data set [4] and 8.11 in data set [7]. For the same molecule, in data set [5], the Tmax stood at 1 h. The molecule also gave a pEC50 in data set [6] of 7.00. This molecule also showed a pIC50 in data set [8] of 8.28.
